The record followed here is patent publication EP4671245A1, “HETEROAROMATIC RING COMPOUND SERVING AS CDK7 KINASE INHIBITOR, PREPARATION THEREOF, AND USE THEREOF” (Jiangsu Chia Tai Fenghai Pharmaceutical Co., Ltd., priority 2023, dated 2024).

Like-named read-outs stand apart in the source and are kept apart here.

One series concerns MDA-MB-468. Kind of series: Anti-proliferative activity on tumor cells (Cell Titer-Glo), MDA-MB-468. Format: cell-based. The conditions noted are these: MDA-MB-468, 7 days, 100% air. As for the experimental part: (§1) Tumor cell lines including HCT-116, MDA-MB-468, Jurkat, HCC70, and MDA-MB-436 were cultured in their respective growth media. Cells were seeded into 384-well plates at densities of 600, 300, 800, 800, and 1000 cells/well (in 18 µL/well), respectively, and incubated overnight at 37°C under 5% CO2 (MDA-MB-468 cells were incubated overnight at 37°C under 100% air). Test sample stock solutions were prepared in DMSO at 10 mM and serially diluted 1:3 across 10 concentrations in 1% DMSO to prepare 10X intermediate dilution plates. Then, 2 µL/well of the 1oX intermediate dilution was added to the cell plates to achieve the final assay concentrations: 10000, 3333, 1111, 370, 123, 41, 14, 4.6, and 1.5 nM. HCT-116, Jurkat, and HCC70 cell plates were incubated for 3, 7, and 7 days at 37°C with 5% CO2, respectively (MDA-MB-468 cell plates were incubated for 7 days at 37°C with 100% air). After treatment, Cell Titer-Glo reagent was removed from -20°C storage and equilibrated to room temperature. Then, 20 µL/well of Cell Titer-Glo reagent was added to each well and incubated for 10 minutes. After the 10-minute incubation, luminescence was measured using a microplate reader. Data were analyzed using Excel and the IC50 values were calculated using GraphPad Prism 7.0 software.
On the technique in general: ATP-based viability assays read luminescence as a measure of living cells.

For another series, the system named is HCC70. As to the kind of experiment: Anti-proliferative activity on tumor cells (Cell Titer-Glo), HCC70. In kind it is cell-based. The conditions noted are these: HCC70, 7 days. As for the experimental part: as §1
The nature of series [1]: Pharmacokinetic study in ICR mice (oral gavage and intravenous, plasma LC-MS/MS). Format: in vivo. The following applies: for Vd / AUC(0-t) / Cmax / MRT last / clearance / half-life / AUC(0-inf) / concentration at 8 h / Tmax / bioavailability: mouse, plasma; for Vd: iv, 10 mg/kg; for AUC(0-inf): read-out: AUCINF_obs; for concentration at 8 h: read-out: Clast; for bioavailability: read-out: Bioavailability (F). On the procedure:
Each group consisted of 12 animals. The dosing vehicle was 10% DMSO + 10% polyoxyethylene castor oil + 80% physiological saline solution. The oral gavage group was fasted for approximately 12 hours prior to dosing and allowed food 4 hours after administration. Water was not restricted during the experiment. Approximately 0.2 mL of blood was collected from the orbital sinus at the following time points: pre-dose and 5, 15, 30 minutes, 1, 2, 4, 6, 8, and 24 hours post-dose. Blood was collected into EP tubes containing EDTA-K2 as anticoagulant and placed on ice. Plasma was separated by centrifugation at 3500 rpm for 5 minutes at 4°C within 1 hour of blood collection. Plasma samples were stored at -20°C until analysis. […] Pharmacokinetic parameters were calculated using WinNonlin software.

Another series has as its system HCT-116. Kind of series: Anti-proliferative activity on tumor cells (Cell Titer-Glo), HCT-116. In kind it is cell-based. The following applies: HCT-116, 3 days. As for the experimental part: as §1
The test system of another series is Jurkat. Kind of series: Anti-proliferative activity on tumor cells (Cell Titer-Glo), Jurkat. In kind it is cell-based. The following applies: 7 days. As for the experimental part: as §1
The target in another series is CDK7/CycH/MAT1 (Homo sapiens, UniProt P50613). Kind of series: Inhibition of CDK7/CycH/MAT1 kinase activity (ADP-Glo). The following applies: IC50, ATP 30 µM, substrate 0.1 µM, 60 minutes at 25°C. In kind it is biochemical. As for the experimental part:
The CDK7/CycH/MAT1 protein was thawed on ice, and the remaining reagents were equilibrated to room temperature. The CDK7/CycH/MAT1 protein and ATP/substrate were diluted to the corresponding concentrations using enzyme reaction buffer (50 mM Hepes, 10 mM MgCl2, 0.01% Brij35, 1 mM EGTA, 2 mM DTT). The test compounds were added to a 384-well white low-volume enzyme assay plate at 20 nL per well, followed by the addition of the prepared CDK7/CycH/MAT1 protein (2 µL/well), mixed well, and incubated at 25°C for 10 minutes. The reaction was initiated by adding ATP/substrate and allowed to proceed at 25°C for 60 minutes. The final concentrations of each component in the enzyme reaction system were as follows: CDK7/CycH/MAT1 protein, 3.5 ng/µL; ATP, 30 µM; substrate, 0.1 µM. The concentrations of the test compounds ranged from high to low as follows: 5000, 1667, 556, 185, 62, 21, 7, 2, 1, and 0.3 nM. After completion of the enzymatic reaction, 4 µL of ADP-Glo Reagent was added to each well and incubated at 25°C for 40 minutes. Subsequently, 8 µL of Kinase Detection Reagent was added to each well and incubated at25°C for another 40 minutes. Chemiluminescence signals were recorded using a microplate reader, and the data were used to generate dose-response curves and calculate IC50 values.
(In general: ADP-Glo turns the ADP formed in a reaction into a luminescent signal.)

Setting [2] is: male ICR mice, iv. 10mg/kg, read-out: Vss.
Where [3] appears, read: male ICR mice, iv. 10mg/kg, read-out: Vz.

Sequence of CDK7/CycH/MAT1 (P50613 whole entry, species assumed): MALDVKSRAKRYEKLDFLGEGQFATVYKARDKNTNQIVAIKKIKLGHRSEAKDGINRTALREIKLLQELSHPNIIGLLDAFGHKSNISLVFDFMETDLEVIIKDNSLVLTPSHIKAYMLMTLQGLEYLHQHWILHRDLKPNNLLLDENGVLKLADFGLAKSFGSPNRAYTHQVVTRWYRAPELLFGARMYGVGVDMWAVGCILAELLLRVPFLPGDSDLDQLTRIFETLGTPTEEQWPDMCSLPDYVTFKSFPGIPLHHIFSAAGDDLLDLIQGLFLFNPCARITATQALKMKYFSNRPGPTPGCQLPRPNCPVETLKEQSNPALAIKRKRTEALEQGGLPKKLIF
Sequence of CDK7/CycH/MAT1 (P51946 whole entry partner, species assumed): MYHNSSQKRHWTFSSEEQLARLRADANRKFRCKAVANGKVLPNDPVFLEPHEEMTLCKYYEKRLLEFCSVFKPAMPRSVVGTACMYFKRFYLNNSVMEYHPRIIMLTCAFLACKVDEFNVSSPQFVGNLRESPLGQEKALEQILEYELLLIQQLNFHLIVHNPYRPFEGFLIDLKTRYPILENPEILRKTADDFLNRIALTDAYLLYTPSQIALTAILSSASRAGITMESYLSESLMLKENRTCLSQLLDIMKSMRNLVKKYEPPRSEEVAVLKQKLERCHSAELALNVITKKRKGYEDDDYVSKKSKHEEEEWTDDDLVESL
Sequence of CDK7/CycH/MAT1 (P51948 whole entry partner, species assumed): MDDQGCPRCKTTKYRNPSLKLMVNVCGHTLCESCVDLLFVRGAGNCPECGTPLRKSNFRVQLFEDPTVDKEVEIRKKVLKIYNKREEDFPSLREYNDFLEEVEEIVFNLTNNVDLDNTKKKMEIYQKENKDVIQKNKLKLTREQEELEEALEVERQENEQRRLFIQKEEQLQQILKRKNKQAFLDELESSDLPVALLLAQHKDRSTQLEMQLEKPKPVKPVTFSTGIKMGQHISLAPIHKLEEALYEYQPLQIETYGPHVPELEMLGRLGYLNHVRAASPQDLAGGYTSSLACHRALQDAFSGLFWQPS

In general, IC30 refers to the concentration at which the effect reaches the 30% level. A higher IC30 goes with weaker potency. What is called AUC(0-t) is exposure summed from dosing to a finite time, without extrapolation to infinity. A lower AUC(0-t) goes with less exposure. A word on the Cmax: it is the maximum level reached in the sampled fluid or tissue. As usually defined, the MRT last is a mean duration of stay, worked out from the concentration-time curve. Broadly, the half-life is how long it takes for the measured level to halve. A low value points to rapid decline. Broadly, the Tmax is the time from dosing to the highest level. The term bioavailability denotes dose-corrected exposure relative to a reference, in per cent. Take `CC(C)c1cnn2c(NCc3ccccc3)cc(NC[C@H]3CCNC[C@@H]3O)nc12` [CT7001, reference compound]: the IC30 in the series with MDA-MB-468 worked out at 0.6022 µM. The molecule further came in with an IC30 in the series on HCC70 of 0.5189 µM. Also, in series [1] (male ICR mice, iv. 10mg/kg), the Tlast was 8 H, the area under the curve AUC(0-t) amounted to 8.12 µg·h/mL, the Cmax was found to be 17.4 µg/mL and the MRT last was determined as 1.3 h. Besides, in series [1] (male ICR mice, iv. 10mg/kg), the clearance was found to be 1.2 L/h/kg, the half-life was 1.5 h, the AUC(0-inf) came out at 8.4 µg·h/mL and the concentration at 8 h was determined as 0.126 µg/mL. In series [1] (male ICR mice, po. 10mg/kg), this molecule returned a Tlast of 8 h, a Vz of 55.15 L/kg, an AUC(0-t) of 0.541 µg·h/mL and a maximum concentration (Cmax) of 0.099 µg/mL. In addition, in series [1] (male ICR mice, po. 10mg/kg), the MRT last turned out to be 3.6 h, the Tmax was 2 h, the half-life is 2.5 h and the AUC(0-inf) came to 0.653 µg·h/mL. In series [1] (male ICR mice, po. 10mg/kg), the bioavailability is 7.8% and the concentration at 8 h is 0.031 µg/mL. Also, the Vd in series [1] (male, ICR, iv. 10mg/kg, read-out: Vss) came to 1.91 L/kg. Also, in series [1] (male, ICR, iv. 10mg/kg, read-out: Vz), the Vd turned out to be 2.62 L/kg. The molecule further had an IC30 in the series on HCT-116 of 0.4637 µM. This molecule also returned an IC30 in the series on Jurkat of 0.4733 µM.
In the case of `[2H]C([2H])(Nc1cc(NC[C@H]2CCNC[C@@H]2O)nc2c(C(C)C)cnn12)c1ccccc1` [Compound 8], the results for the IC30 in the series on MDA-MB-468, with HCT-116 and with Jurkat were 0.3504 µM, 0.2317 µM and 0.3294 µM, respectively.
What is called IC50 is the point on the concentration scale where inhibition reaches its midpoint. On CDK7/CycH/MAT1, `N#Cc1cnn2c(NCc3ccccc3)cc(NC[C@H]3CCNC[C@@H]3O)nc12` [Compound 22] registered an IC50 of 0.00431 µM. Also, the values for the IC30 in the series on MDA-MB-468, in the series with HCT-116 and in the series on Jurkat were 2.91 µM, 3.453 µM and 4.087 µM, respectively.
The molecule `C#CCNc1cc(NC[C@H]2CCNC[C@@H]2O)nc2c(C(C)C)cnn12` [Compound 33] had an IC50 on CDK7/CycH/MAT1 of 0.0027 µM. This molecule showed an IC30 in the series with MDA-MB-468 of 1.101 µM. The same molecule showed an IC30 with HCC70 of 0.5019 µM. Further, in series [1] (male ICR mice, iv. 10mg/kg), the Clast is 0.006 µg/mL, the T1/2 entry was “longer half-life”, the Tlast was 24 H and the Vss entry is “higher steady-state apparent volume of distribution”. In addition, in series [1] (male ICR mice, iv. 10mg/kg), the AUC(0-t) worked out at 1.51 µg·h/mL, the concentration peaked (Cmax) at 0.99 µg/mL, the MRT last is 2.4 h and the clearance was 6.24 L/h/kg. Moreover, in series [1] (male ICR mice, iv. 10mg/kg), the half-life was 10 h and the AUC(0-inf) came out at 1.6 µg·h/mL. Besides, in series [1] (male ICR mice, po. 10mg/kg), the Clast is 0.005 µg/mL, the Tlast came to 6 h, the AUC(0-t) came out at 0.065 µg·h/mL and the Cmax came to 0.026 µg/mL. Also, in series [1] (male ICR mice, po. 10mg/kg), the MRT last was found to be 2.4 h, the Tmax was 0.5 h, the half-life was 2.9 h and the AUC(0-inf) amounted to 0.088 µg·h/mL. Moreover, the bioavailability in series [1] (male ICR mice, po. 10mg/kg) is 5.5%. For the same molecule, the Vd in series [1] (setting [2]) stood at 27.8 L/kg. Moreover, the Vd in series [1] (setting [3]) came out at 90 L/kg. Besides, the IC30 with HCT-116 was found to be 0.7883 µM. For the same molecule, the IC30 with Jurkat is 0.2008 µM.
In turn, `CC#CCNc1cc(NC[C@H]2CCNC[C@@H]2O)nc2c(C(C)C)cnn12` [Compound 38] registered a 50% inhibitory concentration (IC50) against CDK7/CycH/MAT1 of 0.0189 µM. Further, the IC30 with MDA-MB-468 was 0.7659 µM; in the series on HCC70, 0.9688 µM; in the series with HCT-116 it was 0.3913 µM; with Jurkat, 0.8588 µM.
At CDK7/CycH/MAT1, `C=CCNc1cc(NC[C@H]2CCNC[C@@H]2O)nc2c(C(C)C)cnn12` [Compound 41] had an IC50 of 0.0063 µM. In addition, in series [1] (male ICR mice, iv. 10mg/kg), the Clast is 0.019 µg/mL, the Tlast turned out to be 8 H, the Vss entry is given as “higher steady-state apparent volume of distribution” and the AUC(0-t) was determined as 2.96 µg·h/mL. In series [1] (male ICR mice, iv. 10mg/kg), the concentration peaked (Cmax) at 4.37 µg/mL, the MRT last was 1.1 h, the clearance turned out to be 3.3 L/h/kg and the half-life was 2.3 h. For the same molecule, the AUC(0-inf) in series [1] (male ICR mice, iv. 10mg/kg) amounted to 3.02 µg·h/mL. In addition, in series [1] (male ICR mice, po. 10mg/kg), the “Bioavailability (F)” value is “better oral bioavailability”, the Clast came to 0.008 µg/mL, the Tlast was found to be 8 h and the AUC(0-t) was 0.445 µg·h/mL. In series [1] (male ICR mice, po. 10mg/kg), the highest level (Cmax) was 0.15 µg/mL, the mean residence time (MRT last) amounted to 2.5 h, the Tmax is 2 h and the half-life is 1.5 h. In series [1] (male ICR mice, po. 10mg/kg), the AUC(0-inf) stood at 0.462 µg·h/mL and the bioavailability was 15%. The Vd in series [1] (setting [2]) came to 4.22 L/kg. Also, in series [1] (setting [3]), the Vd turned out to be 10.9 L/kg.
As for `CC(C)c1cnn2c(NCC3CC3)cc(NC[C@H]3CCNC[C@@H]3O)nc12` [Compound 45], the midpoint of inhibition against CDK7/CycH/MAT1, the IC50, lay at 0.0212 µM. Further, the IC30 was found to be 0.8518 µM in the series on MDA-MB-468, 0.5964 µM with HCC70, 0.4294 µM in the series with HCT-116 and 1.126 µM with Jurkat.
